Assays:
Details in all cases: 72 h
Caco-2 [1] = assay: cell viability relative to DMSO; higher = less toxic
Calu-3 [2] = assay: as above
HepG2 [3] = assay: as above
U2OS [4] = assay: as above
Vero E6 [5] = assay: as above
Caco-2 [6] = assay: relative viability EC50 (midpoint between 100% and the lowest measured viability); higher = less toxic
Calu-3 [7] = assay: as above
HepG2 [8] = assay: as above
U2OS [9] = assay: as above
Vero E6 [10] = assay: as above
Caco-2 [11] = assay: drug sensitivity score (DSS) for viability; higher = more toxic; extreme values may be limits of the assay
Calu-3 [12] = assay: as above
HepG2 [13] = assay: as above
U2OS [14] = assay: as above
Vero E6 [15] = assay: as above

| SMILES | cell viability (Caco-2 [1]; 1 nM) | cell viability (Caco-2 [1]; 10 nM) | cell viability (Caco-2 [1]; 100 nM) | cell viability (Caco-2 [1]; 1000 nM) | cell viability (Caco-2 [1]; 10000 nM) | cell viability (Calu-3 [2]; 1 nM) | cell viability (Calu-3 [2]; 10 nM) | cell viability (Calu-3 [2]; 100 nM) | cell viability (Calu-3 [2]; 1000 nM) | cell viability (Calu-3 [2]; 10000 nM) | cell viability (HepG2 [3]; 1 nM) | cell viability (HepG2 [3]; 10 nM) | cell viability (HepG2 [3]; 100 nM) | cell viability (HepG2 [3]; 1000 nM) | cell viability (HepG2 [3]; 10000 nM) | cell viability (U2OS [4]; 1 nM) | cell viability (U2OS [4]; 10 nM) | cell viability (U2OS [4]; 100 nM) | cell viability (U2OS [4]; 1000 nM) | cell viability (U2OS [4]; 10000 nM) | cell viability (Vero E6 [5]; 1 nM) | cell viability (Vero E6 [5]; 10 nM) | cell viability (Vero E6 [5]; 100 nM) | cell viability (Vero E6 [5]; 1000 nM) | cell viability (Vero E6 [5]; 10000 nM) | relative viability EC50 (Caco-2 [6]) | relative viability EC50 (Calu-3 [7]) | relative viability EC50 (HepG2 [8]) | relative viability EC50 (U2OS [9]) | relative viability EC50 (Vero E6 [10]) | drug sensitivity score (Caco-2 [11]) | drug sensitivity score (Calu-3 [12]) | drug sensitivity score (HepG2 [13]) | drug sensitivity score (U2OS [14]) | drug sensitivity score (Vero E6 [15]) |
| --- | --- | --- | --- | --- | --- | --- | --- | --- | --- | --- | --- | --- | --- | --- | --- | --- | --- | --- | --- | --- | --- | --- | --- | --- | --- | --- | --- | --- | --- | --- | --- | --- | --- | --- | --- |
| CNC(=O)c1cc2c(cn1)[nH]c1ccccc12 [FG-7142] | 97.7% | 104% | 92.2% | 89.8% | 88.2% | 96.9% | 91.8% | 98.2% | 100% | 103% | 101% | 88.4% | 107% | 96.3% | 110% | 98.2% | 100% | 96.9% | 100% | 96.9% | 102% | 95.7% | 98.2% | 100% | 101% | > 10 µM | > 10 µM | > 10 µM | > 10 µM | > 10 µM | 0.8 | 0 | 0 | 0 | 0 |
| CC[C@]1(O)C[C@@H]2CN(CCc3c([nH]c4ccccc34)[C@@](C(=O)OC)(c3cc4c(cc3OC)N(C)[C@H]3[C@@](O)(C(N)=O)[C@H](O)[C@]5(CC)C=CCN6CC[C@]43[C@@H]65)C2)C1 [vindesine] | 93.8% | 72.7% | 48.5% | 41.2% | 40.3% | 93.8% | 70.6% | 61.4% | 47% | 45.9% | 92.9% | 64.8% | 43.2% | 35.8% | 37.2% | 98.7% | 73.5% | 31.6% | 26.4% | 22.3% | 96.4% | 95.3% | 83.3% | 33.6% | 27.3% | 0.0121 µM | 0.0122 µM | 0.0085 µM | 0.018 µM | 0.219 µM | 20.6 | 17.8 | 23.5 | 25.7 | 14.3 |
| O=C(O)/C=C/CO [trans-4-hydroxycrotonic-acid] | 96.2% | 93.5% | 97.6% | 103% | 99.8% | 109% | 95.3% | 102% | 97.1% | 100% | 94.7% | 92% | 98% | 113% | 102% | 98.3% | 99.7% | 102% | 98.2% | 98.9% | 97% | 102% | 94.8% | 101% | 106% | > 10 µM | > 10 µM | > 10 µM | > 10 µM | > 10 µM | 0 | 0 | 0 | 0 | 0 |
| O=S(=O)(O)NC1CCCCC1 [cyclamic-acid] | 107% | 106% | 85.7% | 98.4% | 93.5% | 101% | 99.7% | 90% | 101% | 97.8% | 112% | 99.5% | 97.8% | 98.8% | 105% | 98.1% | 100% | 96.8% | 101% | 96.3% | 108% | 99.8% | 101% | 99.1% | 106% | > 10 µM | > 10 µM | > 10 µM | > 10 µM | > 10 µM | 0 | 0 | 0 | 0 | 0 |
| Cc1ccccc1N1CCN(CCc2nnc3n2CCCC3)CC1 [dapiprazole] | 106% | 99.9% | 86.9% | 98% | 92.5% | 106% | 102% | 92.9% | 102% | 101% | 99.8% | 104% | 92.9% | 94.3% | 102% | 99.2% | 105% | 96.2% | 106% | 102% | 92.9% | 93.2% | 97.6% | 98.9% | 92.8% | > 10 µM | > 10 µM | > 10 µM | > 10 µM | > 10 µM | 0 | 0 | 0 | 0 | 0 |
| O=P(O)(NCCCl)NCCCl [palifosfamide] | 94.4% | 93.7% | 103% | 98.4% | 93.7% | 91.6% | 101% | 99.4% | 98.8% | 105% | 100% | 102% | 95.3% | 106% | 108% | 100% | 94% | 102% | 98.9% | 97.2% | 93.5% | 95.9% | 91.7% | 98.1% | 107% | > 10 µM | > 10 µM | > 10 µM | > 10 µM | > 10 µM | 0 | 0 | 0 | 0 | 0 |
| COCCCN1CCC(NC(=O)c2cc(Cl)c(N)c3c2OCC3)CC1 [prucalopride] | 102% | 82.8% | 102% | 102% | 101% | 104% | 97% | 90.1% | 97.6% | 94.9% | 96.7% | 102% | 96.5% | 91% | 96.5% | 96.9% | 97.7% | 97.7% | 97.9% | 102% | 106% | 103% | 105% | 101% | 95% | > 10 µM | > 10 µM | > 10 µM | > 10 µM | > 10 µM | 0 | 0 | 0 | 0 | 0 |
| Cc1ccc(C[N+](C)(C)C)o1 [5-methylfurmethiodide] | 99.1% | 105% | 103% | 96.3% | 108% | 108% | 103% | 93.9% | 100% | 101% | 104% | 108% | 93.8% | 103% | 90.2% | 101% | 99.7% | 102% | 98.7% | 103% | 104% | 103% | 97.5% | 107% | 99.9% | > 10 µM | > 10 µM | > 10 µM | > 10 µM | > 10 µM | 0 | 0 | 0 | 0 | 0 |
| O=C(O)CCCN1C(=O)c2cccc3cccc(c23)C1=O [isodibut] | 105% | 90.9% | 93.6% | 98.6% | 95.4% | 99.1% | 97.8% | 96.9% | 94.8% | 114% | 96.1% | 95.8% | 104% | 105% | 98.9% | 99.3% | 96.6% | 97.7% | 97.6% | 95.7% | 97% | 97.9% | 103% | 101% | 99.1% | > 10 µM | > 10 µM | > 10 µM | > 10 µM | > 10 µM | 0 | 0 | 0 | 0 | 0 |
| COc1ccc2cc3[n+](cc2c1OC)CCc1cc2c(cc1-3)OCO2 [berberine] | 110% | 106% | 97.4% | 86.9% | 82.5% | 94.3% | 101% | 105% | 101% | 97.3% | 99.8% | 103% | 87.7% | 92.1% | 30.6% | 106% | 96.8% | 103% | 93.7% | 77.2% | 107% | 93% | 95.3% | 107% | 96.1% | > 10 µM | > 10 µM | 2.23 µM | > 10 µM | > 10 µM | 1.5 | 0 | 5.1 | 1.6 | 0 |
| COc1ccc(-c2cc(=O)c3c(OC)c(OC)c(OC)c(OC)c3o2)cc1 [tangeritin] | 95.1% | 89.6% | 99% | 103% | 91.7% | 106% | 99.6% | 103% | 100% | 92.3% | 94.2% | 101% | 95.2% | 107% | 105% | 98.5% | 94.3% | 98.9% | 97.4% | 89.8% | 91.8% | 98.7% | 92.4% | 98% | 97% | > 10 µM | > 10 µM | > 10 µM | > 10 µM | > 10 µM | 0 | 0 | 0 | 0 | 0 |
| COc1nccc(-c2c(-c3ccc(F)cc3)ncn2C2CCNCC2)n1 | 95.8% | 95.7% | 87.6% | 95.2% | 87.8% | 87.3% | 93.7% | 90.7% | 95.7% | 83.3% | 93.9% | 99.8% | 104% | 88.4% | 94.6% | 96.3% | 99.5% | 97.1% | 96.9% | 90% | 100% | 97% | 94.4% | 83.6% | 89% | > 10 µM | > 10 µM | > 10 µM | > 10 µM | > 10 µM | 0 | 0 | 0.4 | 0 | 1.4 |
| O=C(Nc1cc(C(F)(F)F)cc(C(F)(F)F)c1)c1cnc(Cl)nc1C(F)(F)F | 102% | 94.3% | 102% | 103% | 97.7% | 98.3% | 109% | 101% | 104% | 99.2% | 90.4% | 96.7% | 99.8% | 97% | 92.6% | 100% | 100% | 102% | 99.9% | 94.9% | 96% | 97.5% | 97.1% | 97.2% | 102% | > 10 µM | > 10 µM | > 10 µM | > 10 µM | > 10 µM | 0 | 0 | 0 | 0 | 0 |
| CCCC1(CCC)CCC2(CCN(CCCN(CC)CC)C2)CC1 [atiprimod] | 99.2% | 94.7% | 98.4% | 94.9% | 20.7% | 103% | 103% | 101% | 86.9% | 0.7% | 91.1% | 94.8% | 93.2% | 83.3% | 0% | 101% | 105% | 95.8% | 96.1% | 14.6% | 97.9% | 98.7% | 101% | 92.1% | 16.9% | 2.66 µM | 2.1 µM | 1.89 µM | 2.82 µM | 2.38 µM | 5.1 | 7.7 | 8.3 | 5.3 | 5.9 |

Reference: the supplement of paper PMC13380429
